In publication PMC3723632, “A Multi-targeted Drug Candidate with Dual Anti-HIV and Anti-HSV Activity” (PLoS Pathogens, 2013):
In brackets after ≈: the same amount, converted by molar mass.

Tests used:
HSV-2 (G) = assay: HSV-2 infection of primary monocyte/macrophage (M/M) cultures; type: cell-based; conditions: for inhibition at 0.0032 µg/mL / inhibition at 0.016 µg/mL / inhibition at 0.08 µg/mL / inhibition at 0.4 µg/mL / inhibition at 2 µg/mL / inhibition at 10 µg/mL / inhibition at 50 µg/mL: Human alphaherpesvirus 2, 144 h, day 6, read-out: Inhibition of viral replication (% to control); for EC50: Human alphaherpesvirus 2; for inhibition of HSV-2 replication: 2- to 10-µg/ml
Experimental: We obtained human PBMC from the blood of healthy seronegative donors using Ficoll–Hypaque density gradient centrifugation. The PBMC were resuspended in RPMI 1640 medium supplemented with 20% heat-inactivated serum and then seeded into 48-well plates (1.8×10^6 cells/well). M/M were separated by adherence onto plastic. After 5 days, non-adherent cells were carefully removed by repeated gentle washings with warm medium, and adherent M/M were cultured for an additional 3 days to mature and to form a monolayer. M/M were estimated to be 10^5 cells/well at the time of infection. […]. Similarly, macrophage cultures were treated with the same concentrations of adefovir and tenofovir. Macrophage cultures were then infected with HSV-2 (G) (100 TCID50) in the presence of the compounds. After 2 h of adsorption, the cultures were extensively washed to remove any residual virus particles. Fresh complete medium and compounds, at the established concentrations, were then added to the cultures. Appropriate positive (infected but not treated) and mock-infected negative (uninfected and untreated) M/M controls were run for each experiment as well. All assays were performed in triplicate. […] We determined the amount of infectious virus in the supernatants 5–6 days after infection using the cytopathic effect assay. Tenfold serially diluted supernatants were added to confluent monolayers of Vero cells in 96-well plates (100 µl/well, 6 parallel wells). […] The titers of virus produced were calculated according to the Reed and Muench method and expressed as 50% tissue culture infective dose per mL (TCID50/mL).

CCR5 = assay: Flow cytometry of CCR5 expression on PBMC; type: cell-based, human; conditions: for CCR5 decrease / decrease of CCR5 expression on the cell surface: 24 h; for CCR5 expression, % of control: 72 h
Experimental: Figure 9 Expression of CC-chemokines, CCR5 and chemokine mRNA expression in PBMC cultures after drug treatment. Panel A: Production of CC-chemokines by PBMC and the effects of adefovir, tenofovir, and PMEO-DAPym on the expression of the CCR5 receptor. Freshly isolated PBMCs from four healthy donors were incubated for 24 h with medium only (NC) or with adefovir, tenofovir, or PMEO-DAPym. We collected the supernatants and measured the concentrations of MIP-1α (▪), MIP-1β (▴), and RANTES (•) using a Bioplex system (Bio-Rad, Hercules, CA). Shown are means ± SEM. The cells were also collected, and the expression of the CCR5 receptor (□) was measured with flow cytometry using the PE-labeled CCR5 (clone 2D7) mAb; it is shown as percentage of control (± SEM) from four independent representative experiments. Panel B: Chemokine mRNA expression upon PMEO-DAPym exposure to PBMC. RT-PCR analysis of MIP-1α, MIP-1β, RANTES, and GAPDH (control) expression in PBMC treated with 100-µg/ml PMEO-DAPym for 4 h. Similar results were obtained with PBMC from three different donors. Results from one representative donor are shown.
Figure 11 Expression of the HIV-1 coreceptor CCR5 on PBMCs after treatment with adefovir, tenofovir, or PMEO-DAPym. We treated PBMC with the drugs for 24 h and collected and analyzed the cells using flow cytometry. Cell surface expression of CD4 and the chemokine receptor CCR5 were measured with the fluorescein isothiocyanate-labeled CD4 specific mAb (clone SK3) and the phycoerythrin-labeled CCR5 (clone 2D7). The percentages of positive cells in each quadrant of the dot plots are given. The data shown are from one representative experiment that was independently repeated at least four times. TEXT PRINTED IN THE PICTURE: adefovir: 54% (500 μg/ml); 7% (500 μg/ml); 6% (500 μg/ml) | tenofovir: 50% (500 μg/ml); 6% (500 μg/ml); 5% (500 μg/ml) | PMEO-DAPym: 54% (500 μg/ml); 1% (500 μg/ml); 2% (500 μg/ml); 55% (100 μg/ml); 1% (100 μg/ml); 2% (100 μg/ml); 54% (20 μg/ml); 3% (20 μg/ml); 3% (20 μg/ml) DOUBTS OF THE COPYIST ABOUT THIS PICTURE: The percentages are quadrant labels in dot plots (axes: CD4 expression, CCR5 expression). No measure is printed beside them. For each plot they are listed in the order upper left, upper right, lower right. / The Control plot (51%, 8%, 6%) is left out because it is not a substance.
PBMC were cultured in the presence of adefovir, tenofovir, and PMEO-DAPym and incubated at 37°C in a humidified, 5% CO2-controlled atmosphere. The expression of cellular activation markers was measured after 3 days of culture. Briefly, after washing the cells with PBS containing 2% FCS, we incubated them with PerCP-conjugated anti-CD4 mAb (clone SK3) in combination with PE-conjugated anti-CD25, anti-CD69, or anti-HLA-DR mAbs for 30 min at room temperature. For aspecific background staining, cells were stained in parallel with Simultest Control IgG γ1/γ2a and PerCP-conjugated mouse IgG1. Finally, the cells were washed with PBS, fixed with 1% formaldehyde solution, and analyzed with a FACSCalibur (BD Biosciences, San Jose, CA); data were acquired with CellQuest software and further analyzed with the FLOWJO software (Tree Star, San Carlos, CA). […], and PBMC were incubated with PerCP-conjugated anti-CD4 mAb (clone SK3) in combination with APC-conjugated anti-CXCR4 mAb (clone 12G5) and PE-conjugated anti-CCR5 (clone 2D7) or anti-CXCR3 (clone 1C6). To evaluate the biological effects of the β-chemokines produced by drug-treated PBMC, freshly isolated PBMC were incubated for 1 h at 37°C with supernatants collected from PBMC cultures treated with compounds for 24 h. Then, cells were incubated with PerCP-conjugated anti-CD4 mAb (clone SK3) in combination with PE-conjugated anti-CCR5 mAb (clone 2D7) for 30 min at room temperature. […]

[1] = HSV-2 (G), human monocyte/macrophages

SMILES | Virus production by HSV2-infected macrophages 6 days after infection (CPE reduction) (HSV-2 (G); 0.0032 µg/ml) | Cytopathicity (CPE) on macrophages 6 days after infection % CPE (HSV-2 (G); 0.016 µg/ml) | Virus production by HSV2-infected macrophages 6 days after infection (CPE reduction) (HSV-2 (G); 0.016 µg/ml) | Cytopathicity (CPE) on macrophages 6 days after infection % CPE (HSV-2 (G); 0.08 µg/ml) | Virus production by HSV2-infected macrophages 6 days after infection (CPE reduction) (HSV-2 (G); 0.08 µg/ml) | Virus production by HSV2-infected macrophages 6 days after infection (CPE reduction) (HSV-2 (G); 0.4 µg/ml) | Cytopathicity (CPE) on macrophages 6 days after infection % CPE (HSV-2 (G); 10 µg/ml) | Virus production by HSV2-infected macrophages 6 days after infection (CPE reduction) (HSV-2 (G); 10 µg/ml) | Virus production by HSV2-infected macrophages 6 days after infection (CPE reduction) (HSV-2 (G); 50 µg/ml) | inhibition at 0.0032 µg/mL (HSV-2 (G); 0.0032 µg/ml, M/M) | inhibition at 0.016 µg/mL (HSV-2 (G); 0.016 µg/ml, M/M) | inhibition at 0.08 µg/mL (HSV-2 (G); 0.08 µg/ml, M/M) | inhibition at 0.4 µg/mL (HSV-2 (G); 0.4 µg/ml, M/M) | inhibition at 2 µg/mL (HSV-2 (G); 2 µg/ml, M/M) | inhibition at 10 µg/mL (HSV-2 (G); 10 µg/ml, M/M) | inhibition at 50 µg/mL (HSV-2 (G); 50 µg/ml, M/M) | EC50 (HSV-2 (G); [1]) | inhibition of HSV-2 replication (HSV-2 (G); M/M) | CCR5 decrease (CCR5) | Virus production by HSV2-infected macrophages 6 days after infection (CPE reduction) (HSV-2 (G); 2 µg/ml) | further results
C[C@H](Cn1cnc2c(N)ncnc21)OCP(=O)(O)O [Tenofovir, 9-(2-phosphonylmethoxypropyl)adenine] | 1.2×10^4 TCID50/ml | 75% | 1.3×10^4 TCID50/ml | 60% | 9×10^3 TCID50/ml | 1.9×10^3 TCID50/ml | 10% | No virus | No virus | 14% | 7% | 36% | 86% | 98% | 100% | 100% | 0.2 ± 0.06 µg/mL (≈ 0.696 µM) | virtually completely inhibited | Neither adefovir nor tenofovir induced a marked CCR5 decrease | – | –
Nc1cc(OCCOCP(=O)(O)O)nc(N)n1 [PMEO-DAPym, 6-phosphonylmethoxyethoxy-2,4-diaminopyrimidine] | 1.5×10^4 TCID50/ml | 80% | 1.35×10^4 TCID50/ml | 55% | 7.5×10^3 TCID50/ml | 9.5×10^2 TCID50/ml | 0–5% | No virus | No virus | < 0% | 3.5% | 46% | 93% | 98 to 100% | 100% | 100% | 0.09 ± 0.03 µg/mL (≈ 0.341 µM) | virtually completely inhibited | – | 2.26×10^2 TCID50/ml | decrease of CCR5 expression on the cell surface (CCR5; 20 µg/ml): 60%; decrease of CCR5 expression on the cell surface (CCR5; 100 µg/ml): ≥ 75%; decrease of CCR5 expression on the cell surface (CCR5; 500 µg/ml): ≥ 75%; CCR5 expression, % of control (CCR5; 20 µg/ml): 60%; CCR5 expression, % of control (CCR5; 100 µg/ml): 38%; CCR5 expression, % of control (CCR5; 500 µg/ml): 10%
Nc1ncnc2c1ncn2CCOCP(=O)(O)O [Adefovir, 9-(2-phosphonylmethoxyethyl)adenine] | 1.6×10^4 TCID50/ml | 60% | 7.2×10^3 TCID50/ml | 40% | 1.8×10^3 TCID50/ml | 8×10^2 TCID50/ml | – | No virus | No virus | < 0% | 49% | 87% | 94% | 100% | 100% | 100% | 0.016 ± 0.004 µg/mL (≈ 0.0586 µM) | virtually completely inhibited | Neither adefovir nor tenofovir induced a marked CCR5 decrease | No virus | EC50 (HSV-2 (G); M/M, range over the compounds): 0.02 to 0.2 µg/mL (≈ 0.0732 to 0.732 µM)
